Activity calls are given as the source filed them. No cut-off for these calls is given here.
Legend:
[1] = tested on: RAW264.7; experiment: Inhibition of LPS-induced NO production in mouse RAW264.7 cells preincubated for 2 hrs followed by LPS stimulation for 24 hrs by Griess reagent based assay; type: functional, cell-based
[2] = tested on: RAW264.7; experiment: Cytotoxicity against mouse RAW264.7 cells assessed as effect on cell viability up to 20 uM measured after 24 hrs by CCK8 assay; type: cell-based; conditions: raw264.7, 24 h
[3] = tested on: RAW264.7; experiment: Inhibition of LPS-induced PGE2 production in mouse RAW264.7 cells preincubated for 2 hrs followed by LPS stimulation and measured after 24 hrs by ELISA assay; type: functional, cell-based; conditions: dose 0.75-3 µM, time 26.0 hrs
[4] = tested on: RAW264.7; experiment: Inhibition of LPS-induced iNOS protein expression in mouse RAW264.7 cells at 0.75 to 3 uM preincubated for 2 hrs followed by LPS stimulation for 24 hrs by Western blot analysis; type: functional, cell-based; conditions: dose 0.75-3 µM, time 26.0 hrs
[5] = tested on: RAW264.7; experiment: Inhibition of LPS-induced COX2 protein expression in mouse RAW264.7 cells at 0.75 to 3 uM preincubated for 2 hrs followed by LPS stimulation for 24 hrs by Western blot analysis; type: functional, cell-based; conditions: dose 0.75-3 µM, time 26.0 hrs
[6] = tested on: RAW264.7; experiment: Anti-inflammatory activity against LPS-stimulated mouse RAW264.7 cells assessed as decrease in IL-1 beta production at 0.75 to 3 uM preincubated for 2 hrs followed by LPS stimulation and measured after 24 hrs by ELISA assay; type: functional, cell-based; conditions: dose 0.75-3 µM, time 26.0 hrs
[7] = tested on: RAW264.7; experiment: Anti-inflammatory activity against LPS-stimulated mouse RAW264.7 cells assessed as decrease in IL-6 production at 0.75 to 3 uM preincubated for 2 hrs followed by LPS stimulation and measured after 24 hrs by ELISA assay; type: functional, cell-based; conditions: dose 0.75-3 µM, time 26.0 hrs
[8] = tested on: RAW264.7; experiment: Anti-inflammatory activity against LPS-stimulated mouse RAW264.7 cells assessed as decrease in TNF-alpha production at 0.75 to 3 uM preincubated for 2 hrs followed by LPS stimulation and measured after 24 hrs by ELISA assay; type: functional, cell-based; conditions: dose 0.75-3 µM, time 26.0 hrs
[9] = biological target: T1, Inhibitor of nuclear factor kappa-B kinase subunit alpha/beta (Mus musculus) (UniProt Q60680+O88351); experiment: Inhibition of IKKalpha/beta in LPS-stimulated mouse RAW264.7 cells assessed as decrease in IkappaB degradation at 3 uM preincubated for 2 hrs followed by LPS stimulation for 10 mins by immunoblotting assay; conditions: time 130.0 min
[10] = biological target: T1, Inhibitor of nuclear factor kappa-B kinase subunit alpha/beta (Mus musculus); experiment: Inhibition of IKKalpha/beta in LPS-stimulated mouse RAW264.7 cells assessed as inhibition of NFkB p65 nuclear translocation at 3 uM preincubated for 2 hrs followed by LPS stimulation for 30 mins by immunoblotting assay; conditions: time 150.0 min
[11] = biological target: c-Jun N-terminal kinase (Mus musculus) (UniProt Q91Y86+Q9WTU6+Q61831); experiment: Inhibition of JNK phosphorylation in LPS-induced mouse RAW264.7 cells at 0.75 to 3 uM preincubated for 2 hrs followed by LPS stimulation and measured after 30 mins by immunoblotting assay; conditions: dose 0.75-3 µM, time 150.0 min
[12] = tested on: RAW264.7; experiment: Inhibition of ERK phosphorylation in LPS-induced mouse RAW264.7 cells at 0.75 to 3 uM preincubated for 2 hrs followed by LPS stimulation and measured after 30 mins by immunoblotting assay; conditions: dose 0.75-3 µM, time 150.0 min
[13] = biological target: MAP kinase p38 (Mus musculus) (UniProt P47811+O08911+Q9WUI1+Q9Z1B7); experiment: Inhibition of p38 MAPK phosphorylation in LPS-induced mouse RAW264.7 cells at 0.75 to 3 uM preincubated for 2 hrs followed by LPS stimulation and measured after 30 mins by immunoblotting assay; conditions: dose 0.75-3 µM, time 150.0 min
[14] = biological target: Inhibitor of NF-kappa-B kinase alpha/beta (Homo sapiens) (UniProt O14920+O15111); experiment: Inhibition of IKKalpha/beta in human HEK293T cells assessed as reduction in thermal stability at 50 uM incubated for 30 mins followed by heating at temperature between 58 to 60 degC for 3 mins by CETSA analysis; type: cell-based; conditions: time 33.0 min
[15] = biological target: T1, Inhibitor of nuclear factor kappa-B kinase subunit alpha/beta (Mus musculus); experiment: Inhibition of IKKalpha/beta phosphorylation in LPS-induced mouse RAW264.7 cells incubated for 2 hrs followed by LPS stimulation and measured after 5 mins by immunoblotting assay; conditions: dose 0.75-3 µM, time 125.0 min
[16] = tested on: RAW264.7; experiment: Inhibition of LPS-induced NO production in mouse RAW264.7 cells at 3 uM preincubated with DTT for 30 mins and later incubated with cells for 2 hrs followed by LPS stimulation for 24 hrs by Griess-reagent based assay; type: functional, cell-based; conditions: time 1590.0 min
[17] = biological target: T1, Inhibitor of nuclear factor kappa-B kinase subunit alpha/beta (Mus musculus); experiment: Inhibition of IKKalpha/beta in LPS-stimulated mouse RAW264.7 cells assessed as inhibition of IkappaB alpha phosphorylation at 3 uM preincubated with DTT for 30 mins and later incubated with cells for 2 hrs followed by LPS stimulation for 5 mins by immunoblot anlaysis; conditions: time 155.0 min
[18] = biological target: T1, Inhibitor of nuclear factor kappa-B kinase subunit alpha/beta (Mus musculus); experiment: Inhibition of IKKalpha/beta in LPS-stimulated mouse RAW264.7 cells assessed as inhibition of IkappaB alpha degradation at 3 uM preincubated with DTT for 30 mins and later incubated with cells for 2 hrs followed by LPS stimulation for 10 mins by immunoblot anlaysis; conditions: time 160.0 min
[19] = biological target: T1, Inhibitor of nuclear factor kappa-B kinase subunit alpha/beta (Mus musculus); experiment: Inhibition of IKKalpha/beta in LPS-stimulated mouse RAW264.7 cells assessed as inhibition of IkappaB alpha phosphorylation preincubated for 2 hrs followed by LPS stimulation for 5 mins by immunoblot anlaysis; conditions: dose 0.75-3 µM, time 125.0 min
[20] = Covalent binding affinity to dithiothreitol assessed as compound-DTT adduct formation at 50 uM incubated for 30 mins by UPLC-MS analysis
[21] = tested on: RAW264.7; experiment: Anti-inflammatory activity against LPS-stimulated mouse RAW264.7 cells assessed as decrease in IL-1 beta production at 3 uM preincubated for 2 hrs followed by LPS stimulation and measured after 24 hrs by ELISA assay; type: functional, cell-based; conditions: time 26.0 hrs
[22] = tested on: RAW264.7; experiment: Anti-inflammatory activity against LPS-stimulated mouse RAW264.7 cells assessed as decrease in IL-6 production at 3 uM preincubated for 2 hrs followed by LPS stimulation and measured after 24 hrs by ELISA assay; type: functional, cell-based; conditions: time 26.0 hrs
[23] = tested on: RAW264.7; experiment: Anti-inflammatory activity against LPS-stimulated mouse RAW264.7 cells assessed as decrease in TNF-alpha production at 3 uM preincubated for 2 hrs followed by LPS stimulation and measured after 24 hrs by ELISA assay; type: functional, cell-based; conditions: time 26.0 hrs
[24] = tested on: RAW264.7; experiment: Inhibition of LPS-induced NO production in mouse RAW264.7 cells at 3 uM incubated for 2 hrs followed by LPS stimulation and measured after 24 hrs by Griess reagent based assay; type: functional, cell-based; conditions: time 26.0 hrs
[25] = tested on: RAW264.7; experiment: Inhibition of LPS-induced PGE2 production in mouse RAW264.7 cells at 3 uM preincubated for 2 hrs followed by LPS stimulation and measured after 24 hrs by ELISA assay; type: functional, cell-based; conditions: time 26.0 hrs

c-Jun N-terminal kinase (Mus musculus), sequence (Q61831 whole entry, looked up): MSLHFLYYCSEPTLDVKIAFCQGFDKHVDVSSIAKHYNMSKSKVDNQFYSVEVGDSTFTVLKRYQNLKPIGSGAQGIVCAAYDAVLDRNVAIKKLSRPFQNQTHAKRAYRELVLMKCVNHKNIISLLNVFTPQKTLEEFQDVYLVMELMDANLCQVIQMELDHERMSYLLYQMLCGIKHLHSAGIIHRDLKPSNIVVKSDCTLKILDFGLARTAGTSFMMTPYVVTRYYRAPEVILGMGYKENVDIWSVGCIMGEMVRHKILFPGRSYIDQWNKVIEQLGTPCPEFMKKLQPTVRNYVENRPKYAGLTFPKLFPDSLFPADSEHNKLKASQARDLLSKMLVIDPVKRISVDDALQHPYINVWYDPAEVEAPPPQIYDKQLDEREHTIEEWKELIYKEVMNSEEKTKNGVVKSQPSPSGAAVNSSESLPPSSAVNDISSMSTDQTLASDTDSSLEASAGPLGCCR
c-Jun N-terminal kinase (Mus musculus), sequence (Q91Y86 whole entry, looked up): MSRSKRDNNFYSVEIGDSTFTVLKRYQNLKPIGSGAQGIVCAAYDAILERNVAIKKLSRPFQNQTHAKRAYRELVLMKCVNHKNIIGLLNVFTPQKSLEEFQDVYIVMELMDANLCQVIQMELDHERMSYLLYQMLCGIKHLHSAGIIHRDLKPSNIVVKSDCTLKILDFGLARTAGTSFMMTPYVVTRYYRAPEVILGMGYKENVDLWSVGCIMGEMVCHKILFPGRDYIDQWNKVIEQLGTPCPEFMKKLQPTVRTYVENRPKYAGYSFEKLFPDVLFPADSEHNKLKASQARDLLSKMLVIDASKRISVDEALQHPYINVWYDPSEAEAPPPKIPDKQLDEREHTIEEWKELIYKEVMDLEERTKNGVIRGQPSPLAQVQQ
c-Jun N-terminal kinase (Mus musculus), sequence (Q9WTU6 whole entry, looked up): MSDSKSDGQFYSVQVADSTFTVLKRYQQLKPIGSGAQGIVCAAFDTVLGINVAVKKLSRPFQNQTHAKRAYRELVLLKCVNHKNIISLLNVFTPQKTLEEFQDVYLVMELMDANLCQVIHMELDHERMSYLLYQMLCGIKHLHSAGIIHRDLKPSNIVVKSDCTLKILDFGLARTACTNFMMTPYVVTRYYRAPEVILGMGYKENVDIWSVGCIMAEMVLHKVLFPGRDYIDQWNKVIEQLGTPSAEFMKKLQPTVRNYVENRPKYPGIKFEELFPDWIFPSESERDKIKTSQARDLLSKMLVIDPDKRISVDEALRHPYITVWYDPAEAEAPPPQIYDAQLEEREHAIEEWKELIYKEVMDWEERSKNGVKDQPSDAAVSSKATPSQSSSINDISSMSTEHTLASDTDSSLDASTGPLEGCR

| SMILES | IC50 [1] | Activity [2] | other results |
| --- | --- | --- | --- |
| C=C1C(=O)O[C@@H]2/C=C(\C)CC/C=C(\CO)C[C@@H](O)[C@@H]12 | > 20 µM | Non-Toxic | – |
| C=C1C(=O)O[C@@H]2/C=C(\CO)CC/C=C(\C=O)[C@H](OC)[C@@H](OC(=O)/C(C)=C\C)[C@@H]12 | 7.9 µM | Non-Toxic | – |
| C=C1C(=O)O[C@H]2[C@H]1[C@H](OC(=O)/C(C)=C\C)[C@@H](OC)C(=O)[C@@H]1CC[C@@](O)(CO)[C@H]21 | > 20 µM | Non-Toxic | – |
| C=C1C(=O)O[C@@H]2/C=C3/CC/C=C(\[C@H](O)OC3)[C@H](O)[C@@H](OC(=O)/C(C)=C/C)[C@@H]12 | > 20 µM | Non-Toxic | – |
| C=C1C(=O)O[C@@H]2C[C@H](CO)CC/C=C(\CO)C[C@@H](O)[C@@H]12 | > 20 µM | Non-Toxic | – |
| C=C1C(=O)O[C@@H]2/C=C(\CO)CC/C=C(\CO)[C@H](OC(C)=O)[C@@H](OC(=O)/C(C)=C/C)[C@@H]12 | 10 µM | Non-Toxic | – |
| C=C1C(=O)O[C@@H]2C[C@H](CO)CC/C=C(\CO)C[C@@H](OC(=O)/C(C)=C/C)[C@@H]12 | 6.9 µM | Non-Toxic | – |
| C=C1C(=O)O[C@@H]2C[C@H](COC(=O)/C(C)=C\C)CC/C=C(\CO)C[C@@H](O)[C@@H]12 | 1.4 µM | Non-Toxic | inhibition ([1]; time 26.0 hrs): Dose-Dependent Effect; inhibition [3]: Dose-Dependent Effect; inhibition [4]: Active; inhibition [5]: Active; Activity [6]: Active; Activity [7]: Active; Activity [8]: Active; inhibition [9]: Active; inhibition [10]: Active; inhibition [11]: inactive; inhibition [12]: inactive; inhibition [13]: inactive; inhibition [14]: Active; inhibition [15]: Dose-Dependent Effect; inhibition [16]: inactive; inhibition [17]: inactive; inhibition [18]: inactive; inhibition [19]: Dose-Dependent Effect; Activity [20]: Active |
| C=C1C(=O)O[C@@H]2C[C@H](CO)CC/C=C(\CO)C[C@@H](OC(=O)C=C(C)C)[C@@H]12 | 5.6 µM | Non-Toxic | – |
| C=C1C(=O)O[C@@H]2C[C@H](CO)CC/C=C(\CO)C[C@@H](OC(=O)/C(C)=C\C)[C@@H]12 | 2.3 µM | Non-Toxic | – |
| C=C1C(=O)O[C@@H]2/C=C3/CC/C=C(\[C@H](O)OC3)[C@H](OC)[C@@H](OC(=O)/C(C)=C\C)[C@@H]12 | > 20 µM | Non-Toxic | – |
| C=C1C(=O)O[C@@H]2C[C@H]3CC/C=C(/C[C@@H](OC(=O)/C(C)=C/C)[C@@H]12)[C@H](O)OC3 | > 20 µM | Non-Toxic | – |
| C=C1C(=O)O[C@@H]2/C=C(\CO)CC/C=C(\C=O)[C@H](OC)[C@@H](OC(=O)C(C)C)[C@@H]12 | > 20 µM | Non-Toxic | – |
| C=C1C(=O)O[C@@H]2/C=C(\CO)CC/C=C(\C=O)[C@H](O)[C@@H](OC(=O)/C(C)=C\C)[C@@H]12 | 9.1 µM | Non-Toxic | – |
| C=C1C(=O)O[C@@H]2C[C@H](CO)CCC=C(CO)C[C@@H](OC(=O)C(C)C)[C@@H]12 | 3.4 µM | Non-Toxic | – |
| C=C1C(=O)O[C@@H]2C[C@H](CO)CC/C=C(\COC(=O)C(C)C)C[C@@H](O)[C@@H]12 | > 20 µM | Non-Toxic | – |
| C=C1C(=O)O[C@@H]2/C=C(\CO)CC/C=C(\C=O)[C@H](OC(C)=O)[C@@H](OC(=O)/C(C)=C\C)[C@@H]12 | 16.5 µM | Non-Toxic | – |
| COc1cc(/C=C/C(=O)CC(=O)/C=C/c2ccc(O)c(OC)c2)ccc1O [CURCUMIN] | 3.5 µM | – | Activity [21]: Active; Activity [22]: Active; Activity [23]: Active; inhibition [24]: Active; inhibition [25]: Active |
| C=C1C(=O)O[C@@H]2/C=C(\CO)CC/C=C(\C=O)[C@H](OC(C)=O)[C@@H](OC(=O)/C(C)=C/C)[C@@H]12 | > 20 µM | Non-Toxic | – |
| C=C1C(=O)O[C@H]2[C@H]1[C@H](OC(=O)/C(C)=C/C)[C@@H](OC)C(=O)[C@@H]1CC[C@@](O)(CO)[C@H]21 | > 20 µM | Non-Toxic | – |
| C=C1C(=O)O[C@@H]2/C=C(\CO)CC/C=C(\CO)[C@H](OC(C)=O)[C@@H](OC(=O)/C(C)=C\C)[C@@H]12 | 9.3 µM | Non-Toxic | – |
| C=C(C)C(=O)O[C@@H]1C/C(CO)=C/CC[C@@H](CO)C[C@H]2OC(=O)C(=C)[C@H]12 | 2.7 µM | Non-Toxic | – |
| C=C1C(=O)O[C@@H]2/C=C(\CO)CCC=C(CO)[C@H](OC(C)=O)[C@@H](OC(=O)C(C)C)[C@@H]12 | 10.2 µM | Non-Toxic | – |
| C=C(C)C(=O)O[C@@H]1C=C(C=O)[C@@H]2CC[C@@](O)(CO)[C@@H]2[C@H]2OC(=O)C(=C)[C@@H]21 | 15.4 µM | Non-Toxic | – |
| C=C(C)C(=O)O[C@H]1[C@H]2C(=C)C(=O)O[C@@H]2/C=C(\CO)CC/C=C(\CO)[C@@H]1OC(C)=O | 9.9 µM | Non-Toxic | – |

Reference: ChEMBL document CHEMBL4831548, “Sesquiterpene Lactones from Sigesbeckia glabrescens Possessing Potent Anti-inflammatory Activity by Directly Binding to IKKα/β” (J Nat Prod, 2021)
